Source: paper PMC5366886, “Structure of the Cyanuric Acid Hydrolase TrzD Reveals Product Exit Channel” (Scientific Reports, 2017)

T1: TrzD (Enterobacter cloacae, UniProt P0A3V4)
T1 sequence (P0A3V4 1-370): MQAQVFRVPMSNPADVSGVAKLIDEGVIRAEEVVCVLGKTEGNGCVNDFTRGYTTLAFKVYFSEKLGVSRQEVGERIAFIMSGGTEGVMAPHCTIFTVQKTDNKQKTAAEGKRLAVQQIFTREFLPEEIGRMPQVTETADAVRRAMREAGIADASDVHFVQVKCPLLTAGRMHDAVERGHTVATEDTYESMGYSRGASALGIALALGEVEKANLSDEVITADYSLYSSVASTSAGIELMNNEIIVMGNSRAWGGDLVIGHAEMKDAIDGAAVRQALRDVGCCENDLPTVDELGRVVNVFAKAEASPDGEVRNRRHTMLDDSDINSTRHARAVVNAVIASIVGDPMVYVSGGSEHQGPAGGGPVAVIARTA

B1: TrzD, a cyanuric acid hydrolase from Acidovorax citrulli (enzyme, UniProt P0A3V4 1-370, looked up)
chain: MQAQVFRVPMSNPADVSGVAKLIDEGVIRAEEVVCVLGKTEGNGCVNDFTRGYTTLAFKVYFSEKLGVSRQEVGERIAFIMSGGTEGVMAPHCTIFTVQKTDNKQKTAAEGKRLAVQQIFTREFLPEEIGRMPQVTETADAVRRAMREAGIADASDVHFVQVKCPLLTAGRMHDAVERGHTVATEDTYESMGYSRGASALGIALALGEVEKANLSDEVITADYSLYSSVASTSAGIELMNNEIIVMGNSRAWGGDLVIGHAEMKDAIDGAAVRQALRDVGCCENDLPTVDELGRVVNVFAKAEASPDGEVRNRRHTMLDDSDINSTRHARAVVNAVIASIVGDPMVYVSGGSEHQGPAGGGPVAVIARTA
notes: TrzD, cyanuric acid hydrolase of Acidovorax citrulli; full-length trzD gene in pET28b(+); 370 amino acids, ~39.5 kDa; source: E. coli BL21 (DE3), purified (Ni-NTA, Superdex-200 gel filtration); not shown: His-tag, N-terminal, kept

Key:
TrzD = biological target: T1, TrzD; experiment: co-crystallisation with substrate, X-ray […] A; co-product CO2 seen in density; assay type: biochemical; conditions: 10 mM cyanuric acid in drop, BIS-TRIS pH 6.5, 20 °C; Mg2+ bound in domain 3; turned over, cyanuric acid itself not reported in the model
[1] = biological target: the molecule itself; experiment: SEC + other: dynamic light scattering; purified TrzD in solution; conditions of this experiment not told

Row | Molecule | co-crystallisation with substrate, X-ray 2.19 A; co-product CO2 seen in density (TrzD) | stoichiometry N [1]
1 | O=c1[nH]c(=O)[nH]c(=O)[nH]1 [cyanuric acid, 1,3,5-triazinane-2,4,6-trione] | The protein was crystallized with its natural substrate cyanuric acid by hanging drop | 
2 | B1 |  | 4
